This is an account of results in patent publication US20240100172A1, “METHODS AND COMPOUNDS FOR TARGETED AUTOPHAGY” (Hangzhou Jijing Pharmaceutical Technology Limited, priority 2020, published 2024).

In one experiment the target is T1, KRAS (Homo sapiens, UniProt P01116, G12C).
T1 construct: endogenous in cells; host or cells: NCI-H2030
As to the kind of experiment: KRAS levels in NCI-H2030 cells (Western blot). It counts as cell-based. The method, then:
The following protocol was used to test the effect of exemplary compounds on KRAS levels in NCI-H2030 cells.
On Day 1, seed NCI-N2030 cells were placed into 6-well plates (3.5×10^5 cells/well/2 mL) and incubated for 24 hours. On Day 2, 6 μL compound solutions were added into testing wells in order to obtain compound concentrations of 3.33 μM and 10 μM—with DMSO concentrations of 0.3%. The wells were thoroughly agitated and incubated for 24 hours. On Day 3, the supernatant in the testing wells was discarded, and the testing wells were washed once with 1 mL of cold PBS. Then, 100 μL of RIPA buffer (Boston BioProducts BP-115D) was added to the testing wells with 1× complete protease inhibitor (Roche, #4693116001) and phosphatase inhibitor (Roche, #4906837001). The wells were then agitated by pipetting a few times, the testing plates were held on ice for 30 minutes to affect complete lysis of the cells. The cell lysate from the testing wells was then collected into EP tubes, and the tubes were spun at about 20000×g for 10 minutes at 4° C., before collecting the supernatant from the testing cells.
Protein concentrations in the collected supernatants were measured using BCA methods. The cell lysate was mixed with 5× NuPAGE SDS Loading Buffer and heated at 100° C. for 10 minutes in a heat block. Then 15 μL samples (15 μg) were loaded into 26-well SDS-PAGE gel (Novex, WXP81626BOX) and the gels were processed at 120 V for 1.5 hours, prior to electrotransfer to an NC membrane using a wet-transfer method with 250 mA for 1.5 hours. The resulting membrane was then blocked for 1 hours with LICOR blocking buffer (LI-COR, 927-70001), and was then incubated with a primary antibody 1:1000 (Anti-KRAS (LS-C175665)) that was previously prepared in block buffer at 4° C. overnight. Then, the membrane was washed three times with 1×TBST for 5 minutes each washing, and the membrane was incubated with a secondary antibody GAM 1:5000 (anti-mouse IgG (LI-COR, 926-68070)) for 1 hour at room temperature. The membrane was then washed three times with 1×TBST for 5 minutes each washing, and the membrane was read on LiCOR.
Table 2 below summarizes the normalized KRAS levels in NCI-H2030 cells that were treated with the exemplary compounds of Examples 1-3 for 24 hours.

The next experiment addresses T2, BTK (Homo sapiens, UniProt Q06187).
T2 construct: endogenous in cells; host or cells: NAMALWA
Kind of experiment: BTK levels in NAMALWA cells (Western blot). In kind it is cell-based. The settings on record: 4 hours EBSS starvation. The protocol:
The following protocol was used to test the effect of exemplary compounds on BTK levels in NAMALWA cells.
On Day 1, NAMALWA cells were seeded in 6 well plates at concentration of 2×10^6/well and were incubated overnight. On Day 2, the cells were treated at indicated concentrations following 4 hours of starvation in Earle's Balanced Salt Solution (EBSS, Gibco, #24010-043). After compound treatment for 24 hours, cells were collected and samples were prepared. Fresh, ice cold 1×RIPA lysis buffer supplemented with protease and phosphatase inhibitors was then added to the cell samples, followed by incubation on ice for 30 minutes, and then cells samples were collected. Cell samples were then centrifuged at 4° C., 12,000 rpm for 15 minutes and the resulting supernatant was collected. Protein concentrations within the collected samples were then measured using BCA kit (Solarbio, PC0020), and the cell lysate was mixed with SDS loading buffer and heated at 100° C. for 5 minutes.
15 μg of protein from the samples prepared above was loaded in 4-12% Bis-Tris Gels in 1×MOPS buffer, and the samples were run at 120 V for 120 min. Transfer of the resulting gels was then carried out using the Transblot system with NC membrane, and the membranes were blocked with 5% BSA in TBST for 1 hr at room temperature. Membrane hybridization was then carried out overnight at 4° C. with primary antibodies (anti-BTK, Cell Signaling Technology #8547, Rabbit, 1:1000 diluted in 1% BSA in TBST), and the resulting membranes were washed with TBST for 3×10 min at RT, and then incubated with second antibodies (Goat anti-Rabbit IgG H&L, IRDye® 800CW, LI-COR, 926-32211, 1:5000 diluted in 1% BSA in TBST) in 1% BSA for 1 hr at room temperature. After washing the resulting membranes with TBST for 10 min, 3 times at room temperatures, the membranes were imaged using a Li-COR imaging system.
Table 3 below summarizes the normalized BTK levels in NAMALWA cells treated with the exemplary compounds of Examples 6-8 for 24 hours.

Marks after values point to notes of the source that are not given here.

T2 sequence (Q06187 whole entry): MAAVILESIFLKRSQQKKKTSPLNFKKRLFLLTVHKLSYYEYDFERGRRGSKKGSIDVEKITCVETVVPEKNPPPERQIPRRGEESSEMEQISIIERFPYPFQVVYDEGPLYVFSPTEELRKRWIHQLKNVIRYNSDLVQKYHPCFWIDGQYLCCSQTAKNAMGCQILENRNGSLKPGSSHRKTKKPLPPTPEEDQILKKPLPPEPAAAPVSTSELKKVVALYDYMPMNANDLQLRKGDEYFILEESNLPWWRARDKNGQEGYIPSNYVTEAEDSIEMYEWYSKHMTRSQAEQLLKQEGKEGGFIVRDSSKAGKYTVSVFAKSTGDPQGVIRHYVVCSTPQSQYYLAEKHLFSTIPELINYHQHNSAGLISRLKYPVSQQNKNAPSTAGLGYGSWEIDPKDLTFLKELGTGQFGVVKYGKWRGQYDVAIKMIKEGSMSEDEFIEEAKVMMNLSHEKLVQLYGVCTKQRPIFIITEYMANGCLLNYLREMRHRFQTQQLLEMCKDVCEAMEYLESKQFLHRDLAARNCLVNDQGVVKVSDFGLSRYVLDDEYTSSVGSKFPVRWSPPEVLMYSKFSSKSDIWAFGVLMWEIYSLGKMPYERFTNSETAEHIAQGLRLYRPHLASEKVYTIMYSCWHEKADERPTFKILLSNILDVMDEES

Turning to `C=C(F)C(=O)N1CCN(c2nc(OC[C@@H]3CCCN3CCCOCCOc3c(Br)cc(C=C4C(=O)Nc5ccc(I)cc54)cc3Br)nc3c2CCN(c2cccc4cccc(Cl)c24)C3)C[C@@H]1CC#N` [Example 2, 2-((S)-4-(7-(8-chloronaphthalen-1-yl)-2-(((S)-1-(3-(2-(2,6-dibromo-4-((5-iodo-2-oxoindolin-3-ylidene)methyl)phenoxy)ethoxy)propyl)pyrrolidin-2-yl)methoxy)-5,6,7,8-tetrahydropyrido[3,4-d]pyrimidin-4-yl)-1-(2-fluoroacryloyl)piperazin-2-yl)acetonitrile], the “Normalized KRAS levels in NCI-H2030 cells treated with Compounds for 24 hours” value at KRAS (3.33 μM compound concentration) amounted to 45.1%; on KRAS (10 μM compound concentration) it was 48.6%.
In the same order, the values of `C=C(F)C(=O)N1CCN(c2nc(OC[C@@H]3CCCN3CCCOCCOCCOc3c(Br)cc(C=C4C(=O)Nc5ccc(I)cc54)cc3Br)nc3c2CCN(c2cccc4cccc(Cl)c24)C3)C[C@@H]1CC#N` [Example 3, 2-((S)-4-(7-(8-chloronaphthalen-1-yl)-2-(((S)-1-(3-(2-(2-(2,6-dibromo-4-((5-iodo-2-oxoindolin-3-ylidene)methyl)phenoxy)ethoxy)ethoxy)propyl)pyrrolidin-2-yl)methoxy)-5,6,7,8-tetrahydropyrido[3,4-d]pyrimidin-4-yl)-1-(2-fluoroacryloyl)piperazin-2-yl)acetonitrile] are 63.0% and 65.7%.
Regarding `Nc1ncnc2c1c(-c1ccc(Oc3ccccc3)cc1)nn2C1CCN(CCOCCOCCOCCOCCN2C(=O)C(=Cc3cc(Br)c(O)c(Br)c3)c3cc(I)ccc32)CC1.O=CO` [Example 6, 1-(14-(4-(4-amino-3-(4-phenoxyphenyl)-1H-pyrazolo[3,4-d]pyrimidin-1-yl)piperidin-1-yl)-3,6,9,12-tetraoxatetradecyl)-3-(3,5-dibromo-4-hydroxybenzylidene)-5-iodo indolin-2-one formate], the “Normalized BTK levels in NAMALWA cells treated with Compounds for 24 hours after 4 hours of starvation in EBSS” value (from here on “Normalized BTK levels”) was approximately 58.7%* on BTK (10 μM column, footnote: tested at 11.1 uM from 100 uM top concentration) and approximately 30.1%* on BTK (30 μM column, footnote: tested at 33.3 uM from 100 uM top concentration).
Regarding `Nc1ncnc2c1c(-c1ccc(Oc3ccccc3)cc1)nn2C1CCN(CCOCCOCCOCCN/C(=C2\C(=O)Nc3ccc(Br)cc32)c2cccc(O)c2)CC1.O=CO` [Example 7, (3Z)-3-[[2-[2-[2-[2-[4-[4-amino-3-(4-phenoxyphenyl)pyrazolo[3,4-d]pyrimidin-1-yl]-1-piperidyl]ethoxy]ethoxy]ethoxy]ethylamino]-(3-hydroxyphenyl)methylene]-5-bromo-indolin-2-one formate], the “Normalized BTK levels” value at BTK (3.33 μM compound concentration) was 67.0%; at BTK (10 μM compound concentration), 48.2%.
In the case of `Nc1ncnc2c1c(-c1ccc(Oc3ccccc3)cc1)nn2C1CCN(CCOCCOCCN/C(=C2\C(=O)Nc3ccc(Br)cc32)c2cccc(O)c2)CC1` [Example 8, (3Z)-3-[[2-[2-[2-[4-[4-amino-3-(4-phenoxyphenyl)pyrazolo[3,4-d]pyrimidin-1-yl]-1-piperidyl]ethoxy]ethoxy]ethylamino]-(3-hydroxyphenyl)methylene]-5-bromo-indolin-2-one], the “Normalized BTK levels” value at BTK (3.33 μM compound concentration) worked out at 83.1%; on BTK (10 μM compound concentration) it was 66.3%.
In the case of `C=C(F)C(=O)N1CCN(c2nc(OC[C@@H]3CCCN3CCCOCCOCCOCCOc3c(Br)cc(C=C4C(=O)Nc5ccc(I)cc54)cc3Br)nc3c2CCN(c2cccc4cccc(Cl)c24)C3)C[C@@H]1CC#N` [Example 1, 2-((S)-4-(7-(8-chloronaphthalen-1-yl)-2-(((S)-1-(3-(2-(2-(2-(2,6-dibromo-4-((5-iodo-2-oxoindolin-3-ylidene)methyl)phenoxy)ethoxy)ethoxy)ethoxy)propyl)pyrrolidin-2-yl)methoxy)-5,6,7,8-tetrahydropyrido[3,4-d]pyrimidin-4-yl)-1-(2-fluoroacryloyl)piperazin-2-yl)acetonitrile], the entries for the “Normalized KRAS levels in NCI-H2030 cells treated with Compounds for 24 hours” value on KRAS (3.33 μM compound concentration) and on KRAS (10 μM compound concentration) were 84.9% and 87.5%, respectively.
